# Reference: US20230303581A1, “ORALLY BIOAVAILABLE, BRAIN-PENETRANT COMPOUND WITH SELECTIVITY FOR THE CANNABINOID TYPE 2 RECEPTOR WITH POTENTIAL USE TOWARDS VISCERAL PAIN MANAGEMENT AND NEURODEGENERATIVE DISORDERS” (University of Mississippi, priority 2022, published 2023)
# Values joined by “and” are separate entries in the source; they are usually repeats but may differ in a detail not shown here. Equal values may be shown once. “Also recorded” adds a separate entry of the source. Read-outs that look alike come from different tables or passages of the source.
# What was measured:
# [1] = Stability studies under physiological pH; format: physicochemical; conditions: 4k compared to 4q; data not reported
# mice [2] = test: Acetic acid-induced writhing test; format: in vivo
# From the text: Acetic acid-induced writhing is widely used for assessing analgesic effects against inflammatory pain of peripheral origin.
# [3] = PK evaluation in CD-1 mice (plasma and tissue concentrations); format: in vivo
# Method: The primary stock solutions of 4k and phenacetin (internal standard, IS) were prepared in methanol at a concentration of 1.0 mg/mL. Working solutions of calibration standards and quality control (QC) samples were prepared by dilution with methanol and stored at −20° C. A working stock of the IS solution (20 ng/mL) was prepared in methanol and stored at −20° C.
# Chromatography was performed on an Acquity™ UPLC system (Waters Corp, Milford, MA, USA) with an autosampler temperature at 10° C. Waters Acquity UPLC® HSS C18 column (3.0×50 mm, 1.8 μm particle size) was used for chromatographic separation with linear gradient elution consisting of (A) 90% acetonitrile and (B) 10% 0.2% formic acid in Milli-Q water as mobile phases. The flow rate was set at 0.30 mL/min, and the injection volume was 2 μL.
# An Acquity Tandem Quadrupole Mass Detector (Xevo TQ-S; Waters Corp, Milford, MA, USA) in positive electrospray ionization mode was used for mass spectrometric detection. For collision-induced dissociation, argon was used as collision gas. The cone voltage and collision energy were set at 60 V and 34 V for 4k and 46 V and 26 V for the IS, respectively. Quantification was performed using the monitoring of multiple reaction monitoring (MRM) of following transitions: m/z 409.0/220.9 for 4k and m/z 180.0/92.7 for IS. Retention times of 4k and IS were 2.85 and 1.81 min, respectively.
# A simple protein precipitation method was followed for extraction of 4k from mice plasma. To an aliquot of 50 μL of plasma or tissue (brain, liver, or kidney) samples, IS solution (5 μL of 20 ng/mL) was added and mixed for 15 s on a cyclomixer (Thermo Scientific, Indianapolis, IN, USA). After precipitation with 200 μL of acetonitrile, the mixture was vortexed for 2 min, followed by centrifugation for 10 min at 14,000 rpm on an accuSpin Micro 17R (Fisher Scientific, Suwanee, GA, USA) at 5° C. An aliquot of ˜150 μL of clear supernatant was transferred into vials and 2 μL was injected onto LC-MS/MS system for analysis.
# Male CD-1 mice (N=48) were obtained from Envigo (St. Louis, MO, USA) and maintained on a 12:12 h reversed dark/light cycle (lights off at 07:00 h) with ad libitum access to food and water. Following a ˜4 h fast, animals were randomly assigned to one of two groups. Group I and II animals (n=24/group, weight range 25-30 g) received compound 4k (5 mg/kg) orally (in the form of a solution, prepared using 10% absolute alcohol, 10% cremophor, and 80% Milli-Q water) or intravenously (i.v., using solution formulation comprising 10% absolute alcohol, 10% cremophor, and 80% normal saline), respectively. At 0.5, 1, 2, 4, 8, and 24 h post administration, animals were euthanized, blood was collected in K2. EDTA-containing polypropylene tubes and, tissues were collected (brain, liver, and kidney). Plasma was harvested by centrifuging the blood using Eppendorf 5430R Centrifuge (Germany) at 5000 rpm for 5 min and stored frozen at −80° C. until analysis.
# Brain, liver, and kidney tissues were homogenized in separate 15 mL round-bottom screw-capped vials in phosphate buffered saline (5 volumes of each tissue mass) with a homogenizer (Polytron®) and stored at −80° C. until analysis. Plasma or tissue homogenates (50 μL) were spiked with IS and processed as mentioned in sample preparation section.
# Plasma and tissue concentration and time data of compound 4k were analyzed by a non-compartmental method using WinNonlin Version 5.3 (Pharsight Corporation, Mountain View, CA, USA).
# mice [4] = test: Conditioned place preference test; format: in vivo; conditions: FIG. 4
# From the text: Conditioned place preference testing is used to assess a compound's rewarding effects in order to gauge potential abuse liability. Mice are “conditioned” to associate distinctly lighted/colored/textured chambers with a rewarding drug (e.g., opioid) or no drug. If the mice sense a rewarding effect of the drug, they will prefer to occupy the chamber associated with that drug. FIG. 4 presents the results of a conditioned place preference test for 3 groups of mice (i.e., vehicle, oxycodone treated, and compound 4k treated).
# [5] = male, CD-1, mouse, intravenous 5 mg/kg, brain
# [6] = male, CD-1, mouse, intravenous 5 mg/kg, kidney
# [7] = male, CD-1, mouse, intravenous 5 mg/kg, liver
# [8] = male, CD-1, mouse, intravenous 5 mg/kg, plasma
# [9] = male, CD-1, mouse, oral 5 mg/kg, brain
# [10] = male, CD-1, mouse, oral 5 mg/kg, kidney
# [11] = male, CD-1, mouse, oral 5 mg/kg, liver
# [12] = male, CD-1, mouse, oral 5 mg/kg, plasma
smiles,measurement,setting,value
O=C1c2ccc(Cl)cc2N/C(=N/N=C/c2cc3ccccc3s2)[C@@H]2CCCN12 [Compound 4k],tolerance under physiological pH,[1],better tolerance
same,number writhes per 5 min,"mice [2]; FIG. 3A, 4k 5 mg/kg versus vehicle",lower
same,total frequency of writhes over the entire experiment,"mice [2]; FIG. 3B, 30 min",lowest
same,writhing over 30 minutes,"mice [2]; oxycodone 3 mg/kg, compound 4k 5 mg/kg, versus vehicle",attenuate writhing; also recorded: significantly less writhing
same,AUC0-∞,"[3]; intravenous 5 mg/kg, brain",5685 ng·h/g
same,AUC0-∞,"[3]; intravenous 5 mg/kg, kidney",13272 ng·h/g
same,AUC0-∞,"[3]; intravenous 5 mg/kg, liver",19991 ng·h/g
same,clearance as share of hepatic blood flow in mice,"[3]; intravenous 5 mg/kg, plasma",26%
same,clearance,[3]; [5],15.7 ± 2.31 mL/min/kg
same,half-life,[3]; [5],6.54 ± 1.38 h
same,clearance,[3]; [6],6.38 ± 0.49 mL/min/kg
same,half-life,[3]; [6],10.2 ± 0.49 h
same,clearance,[3]; [7],4.28 ± 0.38 mL/min/kg
same,half-life,[3]; [7],9.26 ± 0.67 h
same,Vd,[3]; [8],14.3 ± 3.11 L/kg
same,clearance,[3]; [8],23.5 ± 5.35 mL/min/kg
same,half-life,[3]; [8],6.91 ± 0.15 h
same,Cmax,"[3]; male, CD-1, mouse, intravenous 5 mg/kg, plasma, read-out: Cmax Or C0",4340 ng/mL
same,Tmax,[3]; [9],1.25 ± 0.44 h
same,half-life,[3]; [9],22.9 ± 3.73 h
same,Cmax,"[3]; male, CD-1, mouse, oral 5 mg/kg, brain, read-out: Cmax",602 ± 44.8 ng/g
same,bioavailability,"[3]; male, CD-1, mouse, oral 5 mg/kg, brain, read-out: F (apparent oral bioavailability)",43%
same,Tmax,[3]; [10],0.75 ± 0.15 h
same,half-life,[3]; [10],16.7 ± 1.61 h
same,Cmax,"[3]; male, CD-1, mouse, oral 5 mg/kg, kidney, read-out: Cmax",795 ± 22.6 ng/g
same,bioavailability,"[3]; male, CD-1, mouse, oral 5 mg/kg, kidney, read-out: F (apparent oral bioavailability)",37 ± 3.78%
same,Tmax,[3]; [11],0.75 ± 0.15 h
same,half-life,[3]; [11],13 ± 0.97 h
same,Cmax,"[3]; male, CD-1, mouse, oral 5 mg/kg, liver, read-out: Cmax",1890 ± 282 ng/g
same,bioavailability,"[3]; male, CD-1, mouse, oral 5 mg/kg, liver, read-out: F (apparent oral bioavailability)",32 ± 2.86%
same,AUC(0-inf),[3]; [12],739 ± 6.75 ng·h/mL
same,Tmax,[3]; [12],0.88 ± 0.13 h
same,half-life,[3]; [12],16.4 ± 1.66 h
same,Cmax,"[3]; male, CD-1, mouse, oral 5 mg/kg, plasma, read-out: Cmax",198 ± 11.5 ng/mL
same,bioavailability,"[3]; male, CD-1, mouse, oral 5 mg/kg, plasma, read-out: F (bioavailability)",18 ± 2.43%
same,AUC0-∞,"[3]; oral 5 mg/kg, kidney",5223 ± 44.75 ng·h/g and 5223 ng·h/g
same,AUC0-∞,"[3]; oral 5 mg/kg, liver",6423 ± 571 ng·h/g and 6423 ng·h/g
same,"place preference (rewarding effect, abuse liability)",mice [4],no significant rewarding effects; also recorded: no such preference
